Reference: US20030170858A1, “Gyrase inhibitors and uses thereof” (priority 2001, published 2003)

Molecular target: E. coli gyrase A2B2 (Escherichia coli, UniProt P0AES6)
Test: E. coli gyrase A2B2 ATPase assay
Format: biochemical
Conditions: 40 nM Gyr A2B2 from E coli, 0.9 mM ATP, 30° C., read-out: Activity against E. coli gyrase (Ki)
Procedure: The ATP hydrolysis activity of DNA gyrase was measured by coupling the production of ADP through pyruvate kinase/lactate dehydrogenase to the oxidation of NADH. This method has been described previously. (Tamura and Gellert, 1990, J. Biol. Chem. 265, 21342-21349).
ATPase assays were carried out at 30° C. in buffered solutions containing 100 mM TRIS pH 7.6, 1.5 mM MgCl2, and 150 mM KCl. The coupling system contained (final concentrations) 2.5 mM phosphoenol pyruvate, 200 μM nicotinamide adenine dinucleotide (NADH), 1 mM DTT, 30 ug/ml pyruvate kinase, and 10 ug/ml lactate dehydrogenase. 40 nM enzyme (374 kDa Gyr A2B2 from E coli) and a DMSO solution of the inhibitor to a final concentration of 4% were added and the reaction mixture allowed to incubate for 10 minutes at 30° C. The reaction was then started by the addition of ATP to a final concentration of 0.9 mM and the rate of NADH disappearance at 340 nm, measured over the course of 10 minutes. Ki values were determined from rate versus. inhibitor concentration profiles.

CCOC(=O)c1cc(-c2sc(-c3cccnc3)nc2CN2CCNCC2)n[nH]1 [IA-67]
Ki: 500 to 1500 nM
